Results as given in patent publication US20090028925A1, “Novel Phosphinic Acid-Containing Thyromimetics” (priority 2005, published 2009).
Read-outs that look alike come from different tables or passages of the source.

Tests used:
[1] = target: T1, human thyroid hormone receptors TRα1 (Homo sapiens, UniProt P10827); assay: Receptor binding to TRα1 (gel filtration and scintillation proximity assay, labeled T3); conditions: SPA data; read-out: Ki TRα
T1 construct: made in house; host or cells: Sf9 insect cells (baculovirus)
T1 sequence (P10827 1-410 isoform P10827-2): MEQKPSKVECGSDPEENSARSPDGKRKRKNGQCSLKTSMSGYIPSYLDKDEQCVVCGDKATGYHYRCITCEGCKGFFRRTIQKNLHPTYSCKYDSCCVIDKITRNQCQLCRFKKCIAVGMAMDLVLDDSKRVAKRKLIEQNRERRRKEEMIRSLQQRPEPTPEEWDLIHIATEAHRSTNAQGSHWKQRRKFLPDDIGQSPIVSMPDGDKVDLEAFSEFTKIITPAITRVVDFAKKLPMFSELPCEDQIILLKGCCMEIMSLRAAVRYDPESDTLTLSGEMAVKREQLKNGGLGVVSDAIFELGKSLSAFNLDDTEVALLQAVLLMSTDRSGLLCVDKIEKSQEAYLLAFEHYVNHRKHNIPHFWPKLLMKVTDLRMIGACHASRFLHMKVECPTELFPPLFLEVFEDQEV
T1 sequence (P19793 1-462 partner): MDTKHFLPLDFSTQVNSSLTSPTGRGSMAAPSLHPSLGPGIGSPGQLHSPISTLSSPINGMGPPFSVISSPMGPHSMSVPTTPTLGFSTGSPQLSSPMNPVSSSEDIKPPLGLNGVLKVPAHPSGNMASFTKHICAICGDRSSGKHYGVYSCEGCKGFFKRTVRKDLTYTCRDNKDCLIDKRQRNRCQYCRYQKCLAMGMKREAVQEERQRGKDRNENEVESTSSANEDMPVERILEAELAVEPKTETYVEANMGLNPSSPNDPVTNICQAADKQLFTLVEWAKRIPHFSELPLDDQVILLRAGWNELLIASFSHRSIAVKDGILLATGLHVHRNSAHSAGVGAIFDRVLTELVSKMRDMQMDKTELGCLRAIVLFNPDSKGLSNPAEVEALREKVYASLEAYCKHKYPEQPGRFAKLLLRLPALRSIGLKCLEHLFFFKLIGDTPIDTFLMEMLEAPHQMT

[2] = target: T2, human thyroid hormone receptors TRβ1 (Homo sapiens, UniProt P10828); assay: Receptor binding to TRβ1 (gel filtration and scintillation proximity assay, labeled T3); conditions: SPA data; read-out: Ki TRβ
T2 construct: made in house; host or cells: Sf9 insect cells (baculovirus)
T2 sequence (P10828 1-461): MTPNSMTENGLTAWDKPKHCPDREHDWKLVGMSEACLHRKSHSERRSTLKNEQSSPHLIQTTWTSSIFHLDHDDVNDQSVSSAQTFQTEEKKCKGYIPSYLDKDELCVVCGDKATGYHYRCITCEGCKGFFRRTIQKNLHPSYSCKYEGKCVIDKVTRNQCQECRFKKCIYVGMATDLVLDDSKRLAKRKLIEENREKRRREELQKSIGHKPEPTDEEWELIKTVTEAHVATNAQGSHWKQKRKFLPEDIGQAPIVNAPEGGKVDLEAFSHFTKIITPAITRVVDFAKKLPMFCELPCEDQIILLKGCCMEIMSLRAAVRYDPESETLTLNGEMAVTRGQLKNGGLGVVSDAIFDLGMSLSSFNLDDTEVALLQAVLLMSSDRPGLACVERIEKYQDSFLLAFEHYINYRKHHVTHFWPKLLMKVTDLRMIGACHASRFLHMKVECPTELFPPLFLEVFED
T2 sequence (P19793 1-462 partner): T1 sequence (P19793 1-462 partner)

[3] = Prodrug activation in rat liver microsomes; assay type: in vitro ADME
From the text: (§1) The purpose of these studies was to determine the kinetics of activation of prodrugs of thyromimetics in microsomal preparations. Microsomes contain the P450 enzyme that is required for the activation of many of the prodrugs prepared. The Km, Vmax, and intrinsic clearance values determined are measures of prodrug affinity for the microsomal enzymes, the rate at which the prodrug is activated, and the catalytic efficiency with which the prodrug is activated, respectively.
(§2) Methods: Activation of prodrugs by dexamethasone treated rat hepatocyte microsomes. Microsomes were isolated by standard differential centrifugation methods from dexamethasone-treated rats. The treatment is to increase cytochrome P450-3A (CYP3A4) activity. Induction of CYP3A4 was confirmed by an increase in testosterone hydroxylation.
(§3) Various concentrations of HepDirect™ Compound 7 were incubated with rat hepatocytes microsomes. Compound 7 formation was analyzed by HPLC using UV-Vis detection. Kinetic parameters (Vmax and Km) were calculated from the transformed data and the intrinsic clearance calculated from the kinetic parameters.

[4] = test system: CYP3A (cytochrome P450-3A (CYP3A4)); assay: Prodrug activation in rat liver microsomes; assay type: in vitro ADME; conditions: liver microsomes from dexamethasone-treated rats; dexamethasone treated rat microsomes, formation of Compound 7
From the text: as §1, §2, §3

plasma cholesterol = assay: Cholesterol lowering in hypercholesterolemic rats; assay type: in vivo; conditions: for change in vivo at 0.2 mg/kg/day: Rattus norvegicus, read-out: % Cholesterol Lowering
[5] = Continuous infusion study in rats on a cholesterol-containing diet; assay type: in vivo; conditions: continuous infusion 1 mg/kg/day; for cholesterol lowering effects: day 7 and day 14; for cardiovascular parameters (heart rate, LV dP/dt, systolic and diastolic blood pressure): day 7 or day 14
Experimental: Screening for thyromimetic activity was performed in normal rats maintained on a cholesterol-containing diet. Compounds were administered by continuous infusion using an osmotic pump at 1 mg/kg/day.

[6] = ip, delivered i.p (0.2 mg/kg/d), percentage change from pre-dose cholesterol
[7] = po, delivered p.o. (0.2 mg/kg/d), percentage change from pre-dose cholesterol

Molecule | Ki [1] [nM] | Ki [2] [nM] | change in vivo at 0.2 mg/kg/day (plasma cholesterol; [6]) [%] | change in vivo at 0.2 mg/kg/day (plasma cholesterol; [7]) [%] | also measured
Cc1cc(OCP(=O)(OCOC(=O)OC(C)C)OCOC(=O)OC(C)C)cc(C)c1Cc1ccc(O)c(C(C)C)c1 [Compound 12-3, di(isopropoxycarbonyloxymethyl)[3,5-dimethyl-4-(4′-hydroxy-3′-iso-propylbenzyl)phenoxy]methylphosphonate] | 738 | 156 | – | – | Vmax ([3]; dexamethasone treated rat microsomes, formation of Compound 7): 775 pmol/min/mg; microsomal CLint ([3]; rat, liver microsomes from dexamethasone-treated rats, intrinsic clearance calculated from the kinetic parameters): 54 µL/min/mg; Km [4]: 14 µM
Cc1cc2oc(P(=O)(O)O)cc2c(C)c1Cc1ccc(O)c(C(C)C)c1 [Compound 45, [4,6-Dimethyl-5-(4′-hydroxy-3′-iso-propyl)benzyl]benzofuran-2-phosphonic Acid] | 216 | 14 | -46.3 | -40.4 | –
Cc1cc(S(=O)(=O)CP(=O)(O)O)cc(C)c1Cc1ccc(O)c(C(C)C)c1 [Compound 52, [3,5-dimethyl-4-(4′-Hydroxy-3′-iso-propylbenzyl)benzenesulfonyl]methylphosphonic acid] | > 2000 | 48 | -18.8 | – | –
Cc1cc2[nH]c(P(=O)(O)O)cc2c(C)c1Oc1ccc(O)c(C(C)C)c1 [Compound 66] | 863 | 121 | -42.9 | -12.5 | –
CC(C)c1cc(Oc2c(Br)cc(CCP(=O)(O)O)cc2Br)ccc1O [Compound 67, 2-[3,5-dibromo-4-(4′-hydroxy-3′-isopropylphenoxy)phenyl]ethylphosphonic Acid] | 37 | 1.8 | – | -17 | –
COP(=O)(O)COc1cc(C)c(Cc2ccc(O)c(C(C)C)c2)c(C)c1 [Compound 69, [3,5-dimethyl-4-(4′-hydroxy-3′-iso-propylbenzyl)phenoxy]methylphosphonic acid monomethyl ester] | 13.5 | 3 | – | – | change in vivo at 0.2 mg/kg/day (plasma cholesterol; po): -41.9%; cholesterol lowering effects [5]: demonstrated cholesterol lowering effects; cardiovascular parameters (heart rate, LV dP/dt, systolic and diastolic blood pressure) [5]: no changes in any of the cardiovascular parameters
CCOP(=O)(O)COc1cc(C)c(Cc2ccc(O)c(C(C)C)c2)c(C)c1 [Compound 69-1, [3,5-dimethyl-4-(4′-hydroxy-3′-iso-propylbenzyl)phenoxy]methylphosphonic acid monoethyl ester] | – | – | – | – | cholesterol lowering effects [5]: demonstrated cholesterol lowering effects; cardiovascular parameters (heart rate, LV dP/dt, systolic and diastolic blood pressure) [5]: no changes in any of the cardiovascular parameters
COP(=O)(O)Cc1cc(Br)c(Oc2ccc(O)c(C(C)C)c2)c(Br)c1 [Compound 69-2, [3,5-dibromo-4-(4′-hydroxy-3′-isopropylphenoxy)benzyl]phosphonic Acid Monomethyl Ester] | 2.8 | 0.8 | – | – | change in vivo at 0.2 mg/kg/day (plasma cholesterol; po): -49.9%
CC(C)c1cc(Oc2c(Br)cc(CP(C)(=O)O)cc2Br)ccc1O [Compound 71, [3,5-Dibromo-4-(4′-hydroxy-3′-isopropylphenoxy)benzyl]methylphosphinic Acid] | 4 | 0.4 | – | -54.4 | –
[3,5-dimethyl-4-(4′-Hydroxy-3′-iso-propyl-phenyl)methoxymethyl]phenoxy]methylphosphonic acid [Compound 33] | 267 | 16.7 | – | – | % Cholesterol Lowering (plasma cholesterol; delivered i.p (0.2 mg/kg/d), percentage change from pre-dose cholesterol): −32.5%

The next lines start with results.

Ki [1] [nM] | Ki [2] [nM] | Molecule | change in vivo at 0.2 mg/kg/day (plasma cholesterol; [6]) [%] | change in vivo at 0.2 mg/kg/day (plasma cholesterol; [7]) [%] | also measured
540 | 73 | Cc1cc(OCP(=O)(O)O)cc(C)c1Oc1ccc(O)c(C(C)C)c1 [Compound 31, [3,5-dimethyl-4-(4′-hydroxy-3′-iso-propylphenoxy)phenoxy]methylphosphonic acid] | -21.1 | – | –
294 | 23 | Cc1cc(OCP(=O)(O)O)cc(C)c1Cc1ccc(O)c(C(=O)NCCc2ccccc2)c1 [Compound 37, [3,5-dimethyl-4-(4′-hydroxy-3′-phenethylcarbamoylbenzyl)phenoxy]methylphosphonic acid] | -0.4 | – | –
254 | 5.4 | Cc1cc(OCP(=O)(O)O)cc(C)c1Cc1ccc(O)c(Cc2ccccc2)c1 [Compound 38, [4-(3′-benzyl-4′-hydroxy-benzyl)-3,5-dimethylphenoxy]methylphosphonic acid] | -21.7 | – | –
30 | 1.1 | Cc1cc(OCP(=O)(O)O)cc(C)c1Cc1ccc(O)c(Cc2ccc(F)cc2)c1 [Compound 40, [3,5-dimethyl-4-[3′-(4-fluoro-benzyl)-4′-hydroxy-benzyl]phenoxy]methylphosphonic acid] | -64.2 | -27.3 | –
794 | 16.2 | Cc1cc(CCP(=O)(O)O)cc(C)c1Cc1ccc(O)c(Cc2ccccc2)c1 [Compound 42, 2-[3,5-dimethyl-4-[3′-benzyl-4′-hydroxy-benzyl]phenyl]-ethylphosphonic acid] | -28.8 | – | –
20 | 2 | Cc1cc(OCP(=O)(O)O)c(I)c(C)c1Cc1ccc(O)c(C(C)C)c1 [Compound 46, [3,5-Dimethyl-4-(4′-hydroxy-3′-iso-propylbenzyl)-2-iodophenoxy]methylphosphonic Acid] | -29.6 | -23.8 | –
24.3 | 2.5 | Cc1cc(NCP(=O)(O)O)cc(C)c1Cc1ccc(O)c(C(C)C)c1 [Compound 47, [3,5-Dimethyl 4-(4′-hydroxy-3′-iso-propylbenzyl)-phenylamino]methylphosphonic Acid] | -29.3 | – | –
129 | 9 | Cc1cc(OCP(=O)(O)O)cc(C)c1Cc1ccc(O)c(C2CC2)c1 [Compound 48, [4-(3′-cyclopropyl-4′-hydroxybenzyl)-3,5-dimethylphenoxy]methylphosphonic acid] | -23.4 | – | –
42.7 | 1.4 | Cc1cc(OCP(=O)(O)O)c(C)c(C)c1Cc1ccc(O)c(C(C)C)c1 [Compound 61, [4-(4′-hydroxy-3′-isopropylbenzyl)-2,3,5-trimethylphenoxymethyl]phosphonic acid] | – | -33.7 | –
183 | 5.4 | Cc1cc(OCP(C)(=O)O)cc(C)c1Cc1ccc(O)c(C(C)C)c1 [Compound 70, [3,5-dimethyl-4-(4′-hydroxy-3′-iso-propylbenzyl)phenoxymethyl]methylphosphinic acid] | – | -32.8 | cholesterol lowering effects [5]: demonstrated cholesterol lowering effects; cardiovascular parameters (heart rate, LV dP/dt, systolic and diastolic blood pressure) [5]: no changes in any of the cardiovascular parameters
